Experimental data reported in paper PMC6615598, “Novel antibiotics effective against gram-positive and -negative multi-resistant bacteria with limited resistance” (PLoS Biology, 2019).
Values joined by “and” are separate entries in the source; they are usually repeats but may differ in a detail not shown here. Equal values may be shown once. Read-outs that look alike come from different tables or passages of the source. Starred links: 1 amine or outer side, 2 acyl side, 3 side chain; linkers in the order of their positions; H or OH if unused. Non-standard residues stand in square brackets, D forms with d. Residues, ends and D or L forms follow the SMILES beside them. azaβ3(1Nal) = O=C(CN(Cc1cccc2ccccc12)N[*:1])[*:2]

What was measured:
[1] = set-up: species or system mice; settings: mouse, in vivo, iv
Procedure: Control embryos were injected with 1 nl of water. […] Each animal was checked for mortality twice per day. […] RBCs were washed until the supernatant was clear. […] RBCs in PBS were a negative control without hemolysis.
Supplementary file pbio.3000337.s011.docx: S5 Table Mice toxicity assays. Clinical signs observed on Day 1 after IV administration of each of the peptide and pseudopeptides in sets of 3 mice. Not observed symptoms are marked with a dash. (DOCX) Click here for additional data file.

MRSA = assay: In vivo resistance: kidney extracts plated on plates containing 1- to 8-fold peptide MIC (severe sepsis); format: cell-based, S. aureus; settings: kidneys at day 7 after repeated treatments, plates with drug at 2-fold MIC
Procedure: For 15 d in MHB, MICs were determined daily for each pseudopeptide and their antibiotic controls. This was done using cells from the well in which the compound concentration was one-half of the MIC (1/2MIC). For each compound, the 1/2MIC well from the previous day’s MIC assay plate was re-suspended and the bacteria grown to a density of about 10^8 cells ml−1. The suspension was diluted in MHB or CAMHB (10^6 cells/ml) and then used to determine the MIC of the same compound determined by micro broth dilution. All MIC measurements were performed in duplicate. Aliquots of the 5 × 10^4 cell/ml dilutions for each 1/2MIC well were periodically plated on MHB and incubated at 35°C for 18 h to verify cell density by colony counts and for visual inspection of colony phenotypes. To control compound stability, peptide solution MICs were determined during and at the end of the 15 d and were compared to cells unexposed to antibiotics. In vivo resistance was also assessed in treated mice (1.5 mg.kg^−1) for 4 d (sepsis) or 6 d (skin abscesses). […] For severe sepsis and subcutaneous abscesses, in vivo resistance was determined by plating aliquots of crude kidney extracts or abscesses on plates containing 1-, 2-, 4-, or 8-fold the peptide MICs 7 or 3 d post infections, respectively.

P. aeruginosa LESB58 [2] = settings: LESB58
Procedure: (10−4 M final concentrations). At selected time intervals, 100 μl of reaction mixture was collected, quenched by 200 μl 95% EtOH, and adjusted at pH 2 to prevent peptide adsorption to serum proteins. […] Supernatants were analyzed by RP-HPLC on an Xbridge C18 column with a linear gradient of water, 0.08% TFA, and acetonitrile with 1% TFA. HPLC peak areas were used to calculate the percentages of intact compound remaining at the various time points. MIC and MBC values were determined in triplicate in many ESKAPE clinical isolates, including a dozen MDR S. aureus, by the broth microdilution method. Peptidomimetics and antibiotics were assayed in a concentration range of 1 to 128 μM. […] After every hour of culture for 4 h, serial dilutions were plated on BHI plates and incubated overnight at 37°C, and then the CFUs were counted and expressed as log CFU/ml. […]
For 15 d in MHB, MICs were determined daily for each pseudopeptide and their antibiotic controls. […] The suspension was diluted in MHB or CAMHB (10^6 cells/ml) and then used to determine the MIC of the same compound determined by micro broth dilution. […] To control compound stability, peptide solution MICs were determined during and at the end of the 15 d and were compared to cells unexposed to antibiotics. In vivo resistance was also assessed in treated mice (1.5 mg.kg^−1) for 4 d (sepsis) or 6 d (skin abscesses). […]

P. aeruginosa LESB58 [3] = assay: Cutaneous abscess mouse model (CFU); format: in vivo, mice
Procedure: For the cutaneous abscess model, the mice were randomly divided into 5 sets. The mice were anesthetized with isoflurane, their dorsal fur shaved, and their skin disinfected with 70% ethanol. An overnight culture of S. aureus MRSA or P. aeruginosa LESB58 was washed with 0.9% NaCl, and then a subcutaneous injection of 2 × 10^9 CFUs and an equal amount of sterile Cytodex microcarrier beads (20 mg.ml^−1, Sigma) for S. aureus MRSA, or 10^8 CFUs for P. aeruginosa were injected into the shaved area. […] Mice were monitored every day and then euthanized with CO2 on Day 6 or on Day 3. Abscesses were excised, measured, and homogenized in PBS using an Ultra-Turax. Serial dilutions of the samples were plated on BHI (MRSA) or 2YT medium (LESB58) plates and then incubated overnight at 37°C. Afterward, the CFUs were counted and expressed as log CFU/ml. Dermonecrosis areas were calculated according to the formula π × L × W. ATP levels were determined with an ATP assay kit (Promega) according to manufacturer instructions on sets of 5 colonies harboring the SCV phenotype, and sets of 5 colonies harboring a normal phenotype, after growth on BHI plates.

## CC(C)[C@@H]1NC(=O)[C@H](CCCNC(=N)N)NC(=O)[C@H](CCCNC(=N)N)NC(=O)CN(Cc2cccc3ccccc23)NC(=O)[C@H](Cc2ccccc2)NC(=O)CN(Cc2cccc3ccccc23)NC(=O)[C@H](CCCCN)NC1=O [Pep19] (cyclo([azaβ3(1Nal)]F[azaβ3(1Nal)]RRVK))
[1]
  Abdominal breathing, mice with sign: -
  Half-closed eyes, mice with sign: -
  Hindlimbs widespread, mice with sign: 1
  Piloerection, mice with sign: 3
[1]; 2 mg/kg
  Abdominal breathing, mice with sign: -
  Decreased grasping reflex, mice with sign: -
  Dyspnea, mice with sign: -
  Half-closed eyes, mice with sign: -
  Hunched posture, mice with sign: 1
  Hypoactivity, mice with sign: 1
  Hypotonia, mice with sign: -
  Piloerection, mice with sign: 3
  Red-colored ears, mice with sign: -
  Red-colored eyes, mice with sign: -
  Staggering gait, mice with sign: 1
  Sudden startle, mice with sign: -
[1]; […]
  Decreased grasping reflex, mice with sign: -
  Half-closed eyes, mice with sign: -
  Hypotonia, mice with sign: -
  Piloerection, mice with sign: 3
  Red-colored ears, mice with sign: -
  Red-colored eyes, mice with sign: -
MRSA
  Clones with increased resistance from kidneys: no clones with increased resistances were detected
P. aeruginosa LESB58 [2]
  MIC: 4 µM
P. aeruginosa LESB58 [3]; cutaneous abscesses induced by P. aeruginosa in mice, repeated doses post-infection, 30mg/kg, second data set, individual values
  CFU counts per abscess: 5.3 log Cfu/ml and 4.34 log Cfu/ml and 3.16 log Cfu/ml and 3.11 log Cfu/ml and 2.85 log Cfu/ml and 6.21 log Cfu/ml and 4.95 log Cfu/ml
P. aeruginosa LESB58 [3]; mice, P. aeruginosa LESB58, 30 mg.kg^−1 subcutaneous twice a day for 2 d, day 3
  Reduction of the bacterial load of abscess: ~50 fold
